Experimental data published in patent publication US10246442B2, “4-Aminoquinazolin compounds as prolyl hydroxylase inhibitors” (JANSSEN PHARMACEUTICA NV, priority 2011, dated 2019).

Tests used:
PHD2181-417 = PHD2181-417 (Homo sapiens (Human), UniProt Q9GZT9); experiment: PHD enzymatic assay ([14C]-succinic acid production); assay type: biochemical; settings: purified PHD2181-417, HIF-1α peptide substrate, 30 min pre-incubation, average of results
Procedure, shortened: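 Recombinant human PHD2 (aa 181-417, E. coli-expressed, tags cleaved) with peptide substrate (10 μM) and [5-14C]-2-oxoglutarate in Tris pH 7.5 with catalase, DTT and ascorbate, 10 min reaction after 30 min compound pre-incubation; compounds at 100 μM final, 1% DMSO. [14C]-succinate separated by DNP precipitation and beta-counted; IC50 from three-parameter logistic fit.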

HIF1-α, Hela cells = experiment: Cellular assay for HIF1-α in Hela cells; assay type: cell-based; settings: Homo sapiens, 100 μM compound, 6 hours, percent of HIF stimulation relative to assay control compound 7-[(4-Chloro-phenyl)-(5-methyl-isoxazol-3-ylamino)-methyl]-quinolin-8-ol
Description: Cellular Assay for HIF1-α
Hela cells (ATCC, Manassas, Va.) were plated in 96-well plates at 20,000 cells per well in 100 μl of DMEM containing 10% fetal bovine serum, 1% non-essential amino acids, 50 IU/mL of penicillin and 50 μg/mL of streptomycin (all cell culture reagents from Invitrogen, Carlsbad, Calif.). 24 hours after plating, changed media to 100 ul of DMEM without 10% fetal bovine serum, 1.1 μl of the stock solution for each compound was added and incubated for 6 hours. All compounds were tested with a final compound concentration of 100 μM. The supernatant was removed and the cells were lysed in 55 μl of MSD lysis buffer containing protease inhibitors. 50 μl of the cell lysate was then transferred to a blocked MSD human HIF-1α detection plate (Meso-Scale Discovery, Gaithersburg, Md., as per manufacturers protocol), and incubated at room temperature on an orbital shaker for 2 hour. After 3 washes in PBS, 25 μl of 20 nM anti-HIF1α a detection antibody was added and incubated for 1 hour at room temperature on an orbital shaker. After 3 washes in PBS, 150 μl of 1× read buffer was added and the plate was then read on a MSD SECTOR instrument. Data was analyzed by determining the percent of HIF stimulation in the presence of 100 μM compound relative to an assay control compound, 7-[(4-Chloro-phenyl)-(5-methyl-isoxazol-3-ylamino)-methyl]-quinolin-8-ol.

[1] = test system: Erythropoietin secretion, Hep-3B cells; experiment: Cellular assay: EPO secretion in Hep-3B cells; assay type: cell-based; settings: Homo sapiens, Hep3B, 100 μM compound, 24 hours, percent of EPO secretion relative to assay control compound 7-[(4-Chloro-phenyl)-(5-methyl-isoxazol-3-ylamino)-methyl]-quinolin-8-ol, read-out: Cellular % EPO Stimulation
Procedure, shortened: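 Compounds at 100 μM final were added to Hep-3B cells 24 h after plating and left for 24 h. Secreted EPO in supernatant measured by MSD electrochemiluminescence immunoassay. Reported as percent EPO secretion relative to an 8-hydroxyquinoline reference control compound.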

PHD2181-417, sequence (Q9GZT9 181-417): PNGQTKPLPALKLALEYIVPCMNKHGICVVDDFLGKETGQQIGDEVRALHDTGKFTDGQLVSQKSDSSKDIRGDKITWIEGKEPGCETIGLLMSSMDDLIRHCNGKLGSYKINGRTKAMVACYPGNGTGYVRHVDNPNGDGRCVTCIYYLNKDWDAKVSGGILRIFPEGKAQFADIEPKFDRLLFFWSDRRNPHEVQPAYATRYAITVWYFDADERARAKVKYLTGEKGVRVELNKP

## O=C(O)c1cnn(-c2nc(NC3CCOCC3)c3cc(Oc4ccccc4)ccc3n2)c1 [Example 76, 1-(6-Phenoxy-4-((tetrahydro-2H-pyran-4-yl)amino)quinazolin-2-yl)-1H-pyrazole-4-carboxylic acid]
PHD2181-417
  Enzyme pIC50: 6.5
HIF1-α, Hela cells
  activation at 100 µM: 19%

## Cc1cccc(C)c1Oc1cc2c(NC3CCOCC3)nc(-n3cc(C(=O)O)cn3)nc2cc1F [Example 16, 1-(6-(2,6-Dimethylphenoxy)-7-fluoro-4-((tetrahydro-2H-pyran-4-yl)amino)quinazolin-2-yl)-1H-pyrazole-4-carboxylic acid]
PHD2181-417
  Enzyme pIC50: 7.1
[1]
  activation at 100 µM: 71%

## O=C(O)c1cnn(-c2nc(N3CCOCC3)c3cc(OC4CCCCC4)c(F)cc3n2)c1 [Example 100, 1-(7-Fluoro-6-(cyclohexyloxy)-4-morpholinoquinazolin-2-yl)-1H-pyrazole-4-carboxylic acid]
PHD2181-417
  Enzyme pIC50: 6.6
[1]
  activation at 100 µM: 18%

## O=C(O)c1cnn(-c2nc(N3CCCCCC3)c3ccc(Oc4ccccc4)cc3n2)c1 [Example 87, 1-(4-(Azepan-1-yl)-7-phenoxyquinazolin-2-yl)-1H-pyrazole-4-carboxylic acid]
HIF1-α, Hela cells
  activation at 100 µM: 20%

## CCN(C)c1nc(-n2cc(C(=O)O)cn2)nc2ccc(-c3ccccc3)cc12 [Example 42, 1-(4-(Ethyl(methyl)amino)-6-phenylquinazolin-2-yl)-1H-pyrazole-4-carboxylic acid]
PHD2181-417
  Enzyme pIC50: 7.3
[1]
  activation at 100 µM: 56%

## CC(C)c1ccc2nc(-n3cc(C(=O)O)cn3)nc(N3CCOCC3)c2c1 [Example 184, 1-(4-(morpholino)-6-isopropylquinazolin-2-yl)-1H-pyrazole-4-carboxylic acid]
PHD2181-417
  Enzyme pIC50: 5.7
[1]
  activation at 100 µM: 24%

## CCN(C)c1nc(-n2cc(C(=O)O)cn2)nc2cc(Cl)c(C(C)C)cc12 [Example 164, 1-(7-chloro-4-(ethyl(methyl)amino)-6-isopropylquinazolin-2-yl)-1H-pyrazole-4-carboxylic acid]
PHD2181-417
  Enzyme pIC50: 7.4
[1]
  activation at 100 µM: 57%

## N#CNc1nc(-n2cc(C(=O)O)cn2)nc2ccc(C3CCCCC3)cc12 [Example 35, 1-(4-Cyanamido-6-cyclohexylquinazolin-2-yl)-1H-pyrazole-4-carboxylic acid]
PHD2181-417
  Enzyme pIC50: 7.2
[1]
  activation at 100 µM: 67%

## O=C(O)c1cnn(-c2nc(N3CCOCC3)c3cc(OC4CCCCC4)c(Cl)cc3n2)c1 [Example 136, 1-(7-chloro-6-(cyclohexyloxy)-4-morpholinoquinazolin-2-yl)-1H-pyrazole-4-carboxylic acid]
PHD2181-417
  Enzyme pIC50: 6.7
[1]
  activation at 100 µM: 33%

## CCN(C)c1nc(-n2cc(C(=O)O)cn2)nc2ccc(C(C)C)cc12 [Example 189, 1-(6-isopropyl-4-(ethyl(methyl)amino)quinazolin-2-yl)-1H-pyrazole-4-carboxylic acid]
PHD2181-417
  Enzyme pIC50: 6.8
[1]
  activation at 100 µM: 36%

## CC(=O)NC1CCN(c2nc(-n3cc(C(=O)O)cn3)nc3ccc(Oc4ccc(Cl)cc4)cc23)CC1 [Example 70, 1-(4-(4-Acetamidopiperidin-1-yl)-6-(4-chlorophenoxy)quinazolin-2-yl)-1H-pyrazole-4-carboxylic acid]
PHD2181-417
  Enzyme pIC50: 7.1
[1]
  activation at 100 µM: 16%

## O=C(O)c1cnn(-c2nc(N3CCCC3)c3cc(C4CCCCC4)ccc3n2)c1 [Example 25, 1-(6-Cyclohexyl-4-(pyrrolidin-1-yl)quinazolin-2-yl)-1H-pyrazole-4-carboxylic acid]
PHD2181-417
  Enzyme pIC50: 6.4
[1]
  activation at 100 µM: 39%

## O=C(O)c1cnn(-c2nc(N3CCCCC3)c3cc(Oc4ccc(Cl)cc4)ccc3n2)c1 [Example 63, 1-(6-(4-Chlorophenoxy)-4-(piperidin-1-yl)quinazolin-2-yl)-1H-pyrazole-4-carboxylic acid]
PHD2181-417
  Enzyme pIC50: 7.6
[1]
  activation at 100 µM: 39%

## O=C(O)c1cnn(-c2nc(Nc3ccccc3)c3cc(C4CCCCC4)ccc3n2)c1 [Example 28, 1-(6-Cyclohexyl-4-(phenylamino)quinazolin-2-yl)-1H-pyrazole-4-carboxylic acid]
PHD2181-417
  Enzyme pIC50: 7.3
[1]
  activation at 100 µM: 31%

## O=C(O)c1cnn(-c2nc(N3CCSCC3)c3cc(C4CCCCC4)ccc3n2)c1 [Example 34, 1-(6-Cyclohexyl-4-thiomorpholinoquinazolin-2-yl)-1H-pyrazole-4-carboxylic acid]
PHD2181-417
  Enzyme pIC50: 6.9
[1]
  activation at 100 µM: 20%

## O=C(O)c1cnn(-c2nc(NC3CC3)c3cc(OC4CCCCC4)ccc3n2)c1 [Example 176, 1-(6-(cyclohexyloxy)-4-(cyclopropylamino)quinazolin-2-yl)-1H-pyrazole-4-carboxylic acid]
PHD2181-417
  Enzyme pIC50: 6.8
[1]
  activation at 100 µM: 35%

## CCCN(CCC)c1nc(-n2cc(C(=O)O)cn2)nc2cc(Oc3ccccc3)ccc12 [Example 93, 1-(4-(Dipropylamino)-7-phenoxyquinazolin-2-yl)-1H-pyrazole-4-carboxylic acid]
HIF1-α, Hela cells
  activation at 100 µM: 43%

## O=C(O)c1cnn(-c2nc(N3CCSCC3)c3cc(-c4ccccc4)ccc3n2)c1 [Example 54, 1-(6-Phenyl-4-thiomorpholinoquinazolin-2-yl)-1H-pyrazole-4-carboxylic acid]
PHD2181-417
  Enzyme pIC50: 6.8
[1]
  activation at 100 µM: 25%

## Cc1cccc(C)c1Oc1cc2c(NCC3CCCCC3)nc(-n3cc(C(=O)O)cn3)nc2cc1F [Example 13, 1-(4-((Cyclohexylmethyl)amino)-6-(2,6-dimethylphenoxy)-7-fluoroquinazolin-2-yl)-1H-pyrazole-4-carboxylic acid]
PHD2181-417
  Enzyme pIC50: 6.9
[1]
  activation at 100 µM: 10%

## COCC(C)Nc1nc(-n2cc(C(=O)O)cn2)nc2cc(F)c(Oc3c(C)cccc3C)cc12 (racemic) [Example 9, (rac)-1-[6-(2,6-Dimethyl-phenoxy)-7-fluoro-4-(2-methoxy-1-methyl-ethylamino)-quinazolin-2-yl]-1H-pyrazole-4-carboxylic acid]
PHD2181-417; read-out: Enzyme pIC50 (converted)
  IC50: 79.4 nM
[1]
  activation at 100 µM: 86%

## CC(C)c1cc2c(NC3CC3)nc(-n3cc(C(=O)O)cn3)nc2cc1Cl [Example 165, 1-(7-chloro-4-(cyclopropylamino)-6-isopropylquinazolin-2-yl)-1H-pyrazole-4-carboxylic acid]
PHD2181-417
  Enzyme pIC50: 7.0
[1]
  activation at 100 µM: 24%

## O=C(O)c1cnn(-c2nc(NC3CC3)c3cc(C4CCCCC4)ccc3n2)c1 [Example 32, 1-(6-Cyclohexyl-4-(cyclopropylamino)quinazolin-2-yl)-1H-pyrazole-4-carboxylic acid]
PHD2181-417
  Enzyme pIC50: 6.7
[1]
  activation at 100 µM: 49%

## Cc1cccc(C)c1Oc1cc2c(N3CCCC3)nc(-n3cc(C(=O)O)cn3)nc2cc1F [Example 5, 1-[6-(2,6-Dimethyl-phenoxy)-7-fluoro-4-pyrrolidin-1-yl-quinazolin-2-yl]-1H-pyrazole-4-carboxylic acid]
PHD2181-417
  Enzyme pIC50: 7.4
[1]
  activation at 100 µM: 25%

## CCN(CC)c1nc(-n2cc(C(=O)O)cn2)nc2ccc(C3CCCCC3)cc12 [Example 27, 1-(6-Cyclohexyl-4-(diethylamino)quinazolin-2-yl)-1H-pyrazole-4-carboxylic acid]
PHD2181-417
  Enzyme pIC50: 7.3
[1]
  activation at 100 µM: 45%

## CN(C)c1nc(-n2cc(C(=O)O)cn2)nc2ccc(-c3ccccc3)cc12 [Example 41, 1-(4-(Dimethylamino)-6-phenylquinazolin-2-yl)-1H-pyrazole-4-carboxylic acid]
PHD2181-417
  Enzyme pIC50: 7.2
[1]
  activation at 100 µM: 43%

## O=C(O)c1cnn(-c2nc(N3CCCCC3)c3cc(-c4ccccc4)ccc3n2)c1 [Example 45, 1-(6-Phenyl-4-(piperidin-1-yl)quinazolin-2-yl)-1H-pyrazole-4-carboxylic acid]
PHD2181-417
  Enzyme pIC50: 7.2
[1]
  activation at 100 µM: 8%

## CCN(CC)c1nc(-n2cc(C(=O)O)cn2)nc2cc(F)c(OC3CCCCC3)cc12 [Example 102, 1-(6-(Cyclohexyloxy)-4-(diethylamino)-7-fluoroquinazolin-2-yl)-1H-pyrazole-4-carboxylic acid]
PHD2181-417
  Enzyme pIC50: 7.5
[1]
  activation at 100 µM: 37%

## CN(C)c1nc(-n2cc(C(=O)O)cn2)nc2cc(Cl)c(OC3CCCCC3)cc12 [Example 137, 1-(7-chloro-6-(cyclohexyloxy)-4-(dimethylamino)quinazolin-2-yl)-1H-pyrazole-4-carboxylic acid]
PHD2181-417
  Enzyme pIC50: 7.4
[1]
  activation at 100 µM: 32%
